Data published in patent US6946466B2, “Aromatic sulfonamides as peroxynitrite-rearrangement catalysts” (Schering AG, priority 2003, dated 2005).

Key:
[1] = Kinetics of the conversion of peroxynitrite into nitrate by UV spectrometry (stopped flow, 301 nm); format: biochemical; settings: peroxynitrite rearrangement relative to spontaneous decomposition without catalyst; catalyst added in one-tenth the stoichiometric amount; UV 301 nm
Method: Measurement of the Kinetics of the Conversion of Peroxynitrite into Nitrate by UV Spectrometry
The following are used: a UV spectrometer • a stopped flow device with slotted-on cuvette laboratory apparatus for volumetric work reagents (buffers, peroxynitrite solution, catalysts)
The peroxynitrite content of the concentrated peroxynitrite solution is determined. A molar extinction coefficient of ε=1 670 is used as basis. The solution is diluted with water to reach an absorption of about 1.6 at the observation wavelength of 301 nm. The pH of the stock solution produced in this way should not fall below 11.
A solution of the catalyst to be investigated is prepared in phosphate buffer appropriate for the peroxynitrite concentration set, in such a way that, taking account of the given conditions in the stopped flow device, the desired amounts of catalyst solution and peroxynitrite can be brought together for reaction. The buffer of the catalyst solution must have sufficient capacity for it to be possible for the peroxynitrite solution, which is still strongly alkaline, to be adjusted to, and maintained at, the desired pH. The catalysts are added in one-tenth the stoichiometric amount (FIG. 1).
The metering syringes of the stopped flow system are charged with the two solutions and used to charge the cuvette which is present in the UV spectrometer. The absorptions at 301 nm are measured simultaneously. The rearrangement of peroxynitrite to nitrate results in the decrease in the absorption, which assumes a constant value after some time. The rearrangement is complete at this time, and the data recording is stopped.
The measured data are analyzed, and the peroxynitrite concentration can be calculated from the characteristic kinetic data of the plot resulting therefrom. […] In order to take account of the spontaneous decomposition of peroxynitrite, for each peroxynitrite preparation used initially the decomposition behavior of the peroxynitrite solution is found on addition of the buffer without catalyst content, and the relation between the characteristic data thereof and those obtained from a measurement with catalyst is found. [formula]

[2] = DHR oxidation assay (oxidation of dihydrorhodamine to rhodamine by peroxynitrite); format: biochemical; settings: rhodamine fluorescence 485/520 nm, neutral pH
Method: Oxidation of Dihydrorhodamine to Rhodamine
The concentration of peroxynitrite is determined by reaction with dihydrorhodamine (DHR) to give rhodamine. The rhodamine fluorescence emission is measured at 520 nm after excitation with light of a wavelength of 485 nm. Catalytic conversion of peroxynitrite by a test substance leads to a decrease in the peroxynitrite concentration and thus also to a decrease in the rhodamine fluorescence, because less DHR can be converted into rhodamine. The search for peroxynitrite-degrading catalysts is carried out at neutral pH. Peroxynitrite is stable for only a few seconds at neutral pH. It is therefore necessary for peroxynitrite to be kept alkaline until contacted with the test substance and DHR as detection reagent. The search for catalysts takes place by rapid mixing of the following components:
10 μl of 10 μM DHR; • 100 μm diethylenetriaminepentaacetic acid in 75 mM Na phosphate buffer at pH 5.6
5 μl of peroxynitrite in 9 mM NaOH
0.75 μl test substance in 30% DMSO/H2O
The measurement takes place in a standard microtiter plate fluorescence measuring apparatus

[3] = test system: primary neuronal cultures from neonatal rat cerebellum; assay: SIN-1 damage assay with primary neuronal cultures from neonatal rat cerebellum (Cytotoxicity assay); format: cell-based; settings: protection against SIN-1 damage, test substance 1 h before SIN-1, Alamar blue readout, read-out: Cytotoxicity assay ED50
Source text: SIN-1 Damage Assay with Primary Neuronal Cultures from Neonatal Rat Cerebellum
A primary culture of cells from neonatal rat cerebellum is set up for in vitro testing of substances for neuroprotection against damage induced by peroxy-nitrite. The measurement of cell death or survival of neurons in this culture takes place indirectly through a measurement of the conversion of the dye Alamar blue into its reduced fluorescent form. The peroxynitrite donor SIN-1 (3-morpholinosydnonimine) is used for the damage.
To obtain the cells, Wistar rats (P8) are sacrificed by decapitation, the cerebella are obtained, the meninges are removed from the cerebellum (HBSS (GIBCO, 14025-050) 4° C.), cut up and transferred into a 15 ml Falcon tube, the supernatant is aspirated off, and then the cerebella are trypsinized by adding 500 μl of trypsin/EDTA solution (GIBCO #2530-054)/cerebellum. After incubation (20 min, 37° C.), the trypsinized cerebella are washed 3× with 10 ml of HBSS. This is followed by tritration by addition of 500 μl of 0.05% strength DNAsel (BOEHRINGER MANNHEIM, #14953000) per cerebellum. Using a 5 ml pipette, then a flame-polished Pasteur pipette and finally (if necessary) a drawn-out flame-polished Pasteur pipette, the cells are isolated and mixed with 10 ml of complete medium (100 ml of Neurobasal (GIBCO #21103-049), 1 ml of B27 supplement (GIBCO #17504-044), 0.4 ml of pen/strep (10 000 IU/ml/10 000 UG/ml) (GIBCO #15140-160), 0.8 ml of KCl stock solution (MERCK, 1.04936.0500), 1 ml of L-glutamine (100×-200 mM) (GIBCO #15140-106). The isolated cells are then centrifuged (10 min at 600 rpm), washed 1× with complete medium and resuspended in 20 ml of complete medium, counted and diluted to 2×10^6 ml. 100 μl of complete medium are introduced into each well of a 96-well microtiter plate, and 100 μl of cell suspension are added (=day 1 in vitro). The microtiter plates are previously coated in the following way: 50 μl of poly-L-lysine (MW 70-105 kD) (SIGMA #P-6282) are applied to each well, and the plates are then incubated in an incubator for about 90 min. Before the cells are plated out, the solution is aspirated off again and washed 2× with HBSS and with sterile double-distilled water. 24 h after plating out, the cells are damaged by addition of SIN-1. Test substances are applied 1 h before addition of SIN-1 (single concentration of 10 or 30 μm, or as concentration series, CALBIOCHEM, 567028). Cell function is measured on day 2 (day2 in vitro) with Alamar blue (10 μl/well) (BIOSOURCE INT., DAL1100). Incubation for 3 hours is followed by measurement in a fluorescence reader (Victor, Wallac, extinction 544 nm/emission 590 nm). IC50 values are calculated by the Excel plug-in XLfit.

Row | SMILES | IC50 [2] [µM] | Rate constant [1] | EC50 [3] [µM]
1 | O=S(=O)(Nc1ccc(N2CCCCC2)cc1)c1cccc2cccnc12 [Example 4, quinoline-8-sulfonic acid 4-piperidin-1-ylphenylamide] | 1.1 | 1.4 | 8.7
2 | COc1cc(N2CCCC2)ccc1NS(=O)(=O)c1cccs1 [Example 5, thiophene-2-sulfonic acid 2-methoxy-4-pyrrolidin-1-ylphenylamide] | 8.1 | 1.9 | 5.9
3 | CN1CCN(c2ccc(NS(=O)(=O)c3cccs3)cc2)CC1 [Example 7, thiophene-2-sulfonic acid 4-(4-methyl-piperazin-1-yl)phenylamide] | 1.9 | 1.3 | 5.7
4 | CN(C)c1ccc(NS(=O)(=O)c2cccs2)c([N+](=O)[O-])c1 [Example 8, thiophene-2-sulfonic acid 4-dimethylamino-2-nitrophenylamide] | 1.6 | 1.6 | 6.4
5 | Cc1noc(C)c1S(=O)(=O)Nc1ccc(N(C)C)cc1[N+](=O)[O-] [Example 9, 3,5-dimethylisoxazole-4-sulfonic acid 4-dimethylamino-2-nitrophenylamide] | 2 | 1.6 | 8.6

More lines, main results first:

Row | IC50 [2] [µM] | SMILES | Rate constant [1] | EC50 [3] [µM]
6 | 1.1 | Cc1noc(C)c1S(=O)(=O)Nc1ccc(N2CCCC2)cc1 [Example 1, 3,5-dimethylisoxazole-4-sulfonic acid 4-pyrrolidin-1-ylphenylamide] | 1.1 | 4.4
7 | 2.4 | Cc1noc(C)c1S(=O)(=O)Nc1ccc(N2CCCC2)cc1C(F)(F)F [Example 2, 3,5-dimethylisoxazole-4-sulfonic acid 4-pyrrolidin-1-yl-2-trifluoromethylphenylamide] | 1.3 | 6.6
8 | 0.95 | Cc1noc(C)c1S(=O)(=O)Nc1ccc(N2CCCCC2)cc1 [Example 3, 3,5-dimethylisoxazole-4-sulfonic acid 4-piperidin-1-ylphenylamide] | 1.4 | 5.3
9 | 1.5 | O=S(=O)(Nc1ccc(N2CCCC2)cc1)c1cccc2cccnc12 [Example 6, quinoline-8-sulfonic acid 4-pyrrolidin-1-ylphenylamide] | 1.2 | 5.2
